Measurements published in publication PMC7238232, “Acamprosate Is a Substrate of the Human Organic Anion Transporter (OAT) 1 without OAT3 Inhibitory Properties: Implications for Renal Acamprosate Secretion and Drug–Drug Interactions” (Pharmaceutics, 2020).

Biological target: T1, OAT3 (Homo sapiens, UniProt Q8TCC7)
T1 sequence (Q8TCC7 1-542): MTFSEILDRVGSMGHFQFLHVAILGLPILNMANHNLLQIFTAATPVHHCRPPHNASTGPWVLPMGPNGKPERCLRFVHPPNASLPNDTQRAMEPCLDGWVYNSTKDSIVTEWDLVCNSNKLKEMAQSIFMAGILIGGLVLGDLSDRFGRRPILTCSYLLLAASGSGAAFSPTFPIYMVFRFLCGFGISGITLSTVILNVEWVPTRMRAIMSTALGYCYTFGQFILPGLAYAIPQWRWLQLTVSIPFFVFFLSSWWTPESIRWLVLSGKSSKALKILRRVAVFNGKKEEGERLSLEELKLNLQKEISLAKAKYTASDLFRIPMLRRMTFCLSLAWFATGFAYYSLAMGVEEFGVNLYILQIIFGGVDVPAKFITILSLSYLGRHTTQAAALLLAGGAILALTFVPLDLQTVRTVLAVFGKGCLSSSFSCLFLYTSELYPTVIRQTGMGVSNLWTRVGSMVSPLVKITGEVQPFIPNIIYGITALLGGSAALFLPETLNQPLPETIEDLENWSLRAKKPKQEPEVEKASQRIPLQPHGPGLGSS
Assay: Acamprosate intracellular uptake in HEK293-Flp-In OAT3 cells (LC/MS-MS)
Format: cell-based
Settings: 200 µM acamprosate; 10 min; Lab. 1
Procedure: The experiments were done on cells cultured in 24-well plates in Lab. 1. For the time-dependent uptake, the experiment was initiated by replacing the incubation buffer with 200 µL prewarmed 200 µM solution of acamprosate in uptake buffer. The plates were incubated in an orbital plate shaker at 37 °C and 100 rpm for 5, 15, 30, 45, 60, or 90 min and experiments were stopped by washing with 3 × 500 µL ice-cold buffer. […] The plates were incubated in an orbital plate shaker (Incubating microplate shaker from VWR International AB, Stockholm, Sweden) at 37 °C and 100 rpm for 10 min (time point at which substrate uptake was within the linear range) and experiments were stopped by washing with 3 × 500 µL∙well^−1 ice-cold buffer. The cells were then lysed with 200 µL 50 nM warfarin in 60:40 acetonitrile (ACN):water (IS solution) and mixed thoroughly. The samples were moved to 96-well LC/MS-MS plates. The wells from the uptake experiment were rinsed again with 200 µL IS solution and the resulting volumes were added to the corresponding well on the same 96-well plate. […] The plates were covered with aluminum seals and centrifuged at 3500 rpm and 5 °C for 20 min and the amount of acamprosate in the supernatant was quantified by LC/MS-MS.
Acamprosate was quantified in Lab. […] Quantification was done by multiple reaction monitoring of parent and daughter ions. […]

## CC(=O)NCCCS(=O)(=O)O [acamprosate, acetylhomotaurinate]
  acamprosate uptake in OAT3 expressing cells compared to mock cells: similar
